Assay [1] deals with human PTH/PTHrP receptor. The assay is described as follows: Cytosolic free calcium (fura-2) in LLC-PK1 cells expressing human PTHR. Particulars: other experiments, hPTHR-expressing LLC-PK1 cells.
Description: Cytosolic free calcium was measured in fura 2AM-loaded confluent monolayers of cells.
Cytosolic free calcium was measured by dual fluorescence in cells loaded with the Ca^2+-sensitive intracellular probe fura-2. Cells were seeded onto glass coverslips at a density of 40,000-600,000/cm^2 and incubated for 2 days as described above. Coverslips were washed twice with PBS before loading in phosphate-free Buffer B containing 4 uM of fura-2/AM (Molecular Probes, Eugene, Oreg.) for 30 min at room temperature (22° C.). After washing twice with fura-free Buffer B, the coverslips were mounted in a cuvette containing 2 ml of phosphate-free Buffer B at 37° C. and the emission at 510 nm in response to alternating excitation at 340 and 380 nm was monitored using a ratiometric PTI Deltascan fluorescence spectrometer with excitation and emission bandwidths of 2 nm. After achieving a stable baseline, agonists were introduced by exchange into 2 ml of fresh buffer to which 10-20 ul of concentrated agonist stock (or vehicle alone) had been added. Peptide stocks were prepared in 0.1% trifluoroacetic acid, ionomycin and phorbol esters were dissolved in dimethyl sulfoxide and all other additives were prepared in water. Maximum and minimum fluorescence signals were obtained by exposure to modified buffers containing 1 uM ionomycin plus 20 mM calcium or 2 mM EGTA in the nominal absence of calcium, respectively, and autofluorescence was estimated from signals obtained in the presence of ionomycin plus 2.5 mM MnCl2.
Assay [2] concerns the target T1, human PTH/PTHrP receptor (Homo sapiens, UniProt Q03431).
T1 sequence (Q03431 27-593): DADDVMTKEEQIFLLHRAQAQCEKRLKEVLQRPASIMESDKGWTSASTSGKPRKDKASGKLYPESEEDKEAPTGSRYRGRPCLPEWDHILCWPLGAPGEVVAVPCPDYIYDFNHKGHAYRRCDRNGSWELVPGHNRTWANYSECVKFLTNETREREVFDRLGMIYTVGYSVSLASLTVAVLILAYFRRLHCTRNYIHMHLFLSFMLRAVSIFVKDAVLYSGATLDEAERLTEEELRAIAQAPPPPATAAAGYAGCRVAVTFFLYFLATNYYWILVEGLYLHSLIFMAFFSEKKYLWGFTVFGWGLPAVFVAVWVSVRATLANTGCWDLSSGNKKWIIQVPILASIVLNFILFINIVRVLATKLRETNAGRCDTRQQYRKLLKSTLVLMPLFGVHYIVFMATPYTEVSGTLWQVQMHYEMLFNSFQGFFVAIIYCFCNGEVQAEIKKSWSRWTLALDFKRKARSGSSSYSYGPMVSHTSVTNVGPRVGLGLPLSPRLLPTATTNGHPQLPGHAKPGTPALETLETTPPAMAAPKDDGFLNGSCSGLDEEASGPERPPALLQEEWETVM
The assay is described as follows: Urokinase-type plasminogen activator (u-PA) secretion bioassay in LLC-PK1 cells expressing human PTHR. Particulars: AB45 cells (hPTHR + REV AB dominant-negative PKA inhibitor), 16 hr.
Description: Cells were seeded into 96-well plates at a density of 6×10^4 cells/well and used the following day. The cells were washed once with 0.2 ml and then refed with 0.1 ml of prewarmed DMEM containing 0.05% BSA. After adding each stimulator, plates were returned to the incubator at 37° C. for 16 h. Conditioned medium (5 ul) then was transferred from each well to a clean microplate. […] Activity was expressed in Ploug units/well, using purified human urokinase (Calbiochem) as a standard.
Cells were incubated with the indicated peptides (1000 nM) for 16 hr before measurement of secreted u-PA present in the medium, which was expressed as a percentage of the activity measured in vehicle-treated controls. Values shown are means±SEM of triplicate determinations.

For assay [3], the target named is T1, human PTH/PTHrP receptor. Description: Competitive radioligand (Scatchard) binding to human PTH/PTHrP receptors stably expressed in LLC-PK1 cells. Also noted: transfected with a full-length human PTH/PTHrP receptor cDNA; expressed in transfected cells. Particulars: Scatchard analysis, read-out: Apparent Kd. The method, then:
FIGS. 1A-1B and 1C-1D. Competitive radioligand binding to human PTH/PTHrp receptors stably expressed in LLC-PK1 cells. LLC-PK1 cells stably expressing (FIGS. 1A-1B) 950,000 receptors/cell (HKRK B7) or (FIGS. 1C-1D) 280,000 receptors/cell (HKRK B28) were incubated with ^125I-[Nle^8,18,Tyr^34]bPTH(1-34) in binding buffer for 6 hr at 15° C. in the presence or absence of increasing concentrations of nonradioactive ligand. Scatchard plots are shown in the insets. Each point represents the mean± of triplicate determinations. Total radioligand bound ranged from 15,000-30,000 cpm/well, and nonspecific binding was 2-5% of total binding.
(§1) In brief, the cells were seeded into 24-well plates at a density of 2.5×10^5 cells/well and cultured for a further 2 days before study. Cell layers were rinsed with ice-cold Buffer A [50 mM Tris-HCl (pH 7.7), 100 mM NaCl, 2 mM CaCl2, 5 mM KCl, 0.5% FBS, and 5% heat-inactivated horse serum] and then incubated with ^125I-labeled [Nle^8,18, Tyr^34]bovine (b) PTH(1-34) (1×10^5 cpm/well), with or without unlabeled peptide, in 0.5 ml of Buffer A for 6 h in the cold room (2-8° C.). […] All reagents, unless otherwise specified, were obtained from Sigma (St. Louis, Mo.), and all isotopes were purchased from Dupont-New England Nuclear (Boston, Mass.).
Radioligand competition assays and Scatchard analyses for two representative cell lines, HKRK B7 and HKRK B28, which express 950,000 and 280,000 hPTHRs per cell, respectively, are shown in FIGS. 1A-1D. […] In each case, the Scatchard analysis was linear, consistent with a single class of high affinity binding sites. The subsequent example described below was conducted with two cell lines, which were chosen as representative of those expressing relatively high (HKRK B7) and low (HKRK B28) densities of hPTHRs, respectively.

The target in another assay is T2, rat PTHR (Rattus norvegicus, UniProt P25961).
T2 construct: expressed in transfected cells; host or cells: LLC-PK1 porcine renal epithelial cells (EW5; also EW29, AR-C38, AR-B44)
T2 sequence (P25961 27-591): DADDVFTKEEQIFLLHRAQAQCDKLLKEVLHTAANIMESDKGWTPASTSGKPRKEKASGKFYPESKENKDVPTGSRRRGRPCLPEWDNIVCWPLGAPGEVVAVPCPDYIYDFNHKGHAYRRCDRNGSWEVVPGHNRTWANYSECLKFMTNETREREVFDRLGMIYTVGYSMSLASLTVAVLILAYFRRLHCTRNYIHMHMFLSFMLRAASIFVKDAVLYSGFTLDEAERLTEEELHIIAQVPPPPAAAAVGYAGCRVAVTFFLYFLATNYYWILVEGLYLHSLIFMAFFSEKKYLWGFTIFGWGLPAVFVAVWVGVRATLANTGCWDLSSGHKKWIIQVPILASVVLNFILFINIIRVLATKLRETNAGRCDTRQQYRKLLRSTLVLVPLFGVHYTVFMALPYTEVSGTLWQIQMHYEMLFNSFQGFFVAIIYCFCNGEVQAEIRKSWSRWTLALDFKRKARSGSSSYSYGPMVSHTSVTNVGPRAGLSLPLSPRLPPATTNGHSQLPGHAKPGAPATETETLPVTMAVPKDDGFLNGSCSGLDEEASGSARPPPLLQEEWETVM
Description: Competitive radioligand (Scatchard) binding to rat PTHRs expressed in LLC-PK1 cells. Particulars: Scatchard analysis, read-out: Apparent Kd. On the procedure:
as §1

SMILES strings stand for the structures. Like-named read-outs stand apart in the source and are kept apart here. Where a SMILES comes first, the peptide text is derived from it. [ ]: non-standard residue; d: D form. Nle = CCCC[C@H](N)C(=O)O

`CCCCCCCCCCCCCC(=O)O[C@@H]1[C@@H](C)[C@@]2(O)[C@@H](C=C(CO)C[C@]3(O)C(=O)C(C)=C[C@@H]23)[C@H]2C(C)(C)[C@]12OC(C)=O` [TPA]: the “calcium responses to PKA/PKC activators” value with human PTH/PTHrP receptor [1] is on record as “failed to elicit calcium responses”. In addition, at human PTH/PTHrP receptor [2], the “u-PA response in cAMP-resistant cells (in words)” value is recorded as “well-maintained”.

Regarding `CCCC[C@H](NC(=O)[C@H](CO)NC(=O)[C@H](CO)NC(=O)[C@H](CC(C)C)NC(=O)[C@H](Cc1c[nH]cn1)NC(=O)[C@H](CCCCN)NC(=O)CNC(=O)[C@H](CC(C)C)NC(=O)[C@H](CC(N)=O)NC(=O)[C@H](Cc1c[nH]cn1)NC(=O)[C@H](CCCC)NC(=O)[C@H](Cc1ccccc1)NC(=O)[C@H](CCC(N)=O)NC(=O)[C@@H](NC(=O)[C@H](CCC(=O)O)NC(=O)[C@H](CO)NC(=O)[C@@H](NC(=O)[C@H](C)N)C(C)C)[C@@H](C)CC)C(=O)N[C@@H](CCC(=O)O)C(=O)N[C@@H](CCCNC(=N)N)C(=O)N[C@H](C(=O)N[C@@H](CCC(=O)O)C(=O)N[C@@H](Cc1c[nH]c2ccccc12)C(=O)N[C@@H](CC(C)C)C(=O)N[C@@H](CCCNC(=N)N)C(=O)N[C@@H](CCCCN)C(=O)N[C@@H](CCCCN)C(=O)N[C@@H](CC(C)C)C(=O)N[C@@H](CCC(N)=O)C(=O)N[C@@H](CC(=O)O)C(=O)N[C@H](C(=O)N[C@@H](Cc1c[nH]cn1)C(=O)N[C@@H](CC(N)=O)C(=O)N[C@@H](Cc1ccc(O)cc1)C(N)=O)C(C)C)C(C)C` [[Nle^8,18, Tyr^34]bPTH(1-34), [Nle^8,18, Tyr^34]bovine (b) PTH(1-34)] (H-AVSEIQF[Nle]HNLGKHLSS[Nle]ERVEWLRKKLQDVHNY-NH2; N-terminus assumed), the Kd on human PTH/PTHrP receptor [3] (HKRH C58 cells, 1030 x10^3 receptors/cell) stood at 3.6 nM; on human PTH/PTHrP receptor [3] (HKRK B5 cells, 840 x10^3 receptors/cell) it was 3.9 nM; on human PTH/PTHrP receptor [3] (HKRK B7 cells, 950 x10^3 receptors/cell) it was 4.5 nM; at human PTH/PTHrP receptor [3] (HKRK B28 cells, 280 x10^3 receptors/cell) it was 1.8 nM; at human PTH/PTHrP receptor [3] (HKRK B54 cells, 1020 x10^3 receptors/cell), 6.4 nM; at human PTH/PTHrP receptor [3] (HKRK B57 cells, 900 x10^3 receptors/cell) it was 5.6 nM. Moreover, the Kd at human PTH/PTHrP receptor [3] (HKRK B64 cells, 90 x10^3 receptors/cell) amounted to 1.3 nM; on human PTH/PTHrP receptor [3] (HKRK C27 cells, 340 x10^3 receptors/cell), 2.2 nM; at human PTH/PTHrP receptor [3] (HKRK C30 cells, 600 x10^3 receptors/cell) it was 2.8 nM; at human PTH/PTHrP receptor [3] (HKRK C53 cells, 120 x10^3 receptors/cell) it was 1.2 nM; at human PTH/PTHrP receptor [3] (HKRK C101 cells, 330 x10^3 receptors/cell), 1.6 nM; on rat PTHR (EW5 cells, 320 x10^3 rat receptors/cell), 2.3 nM. The Kd on rat PTHR (EW29 cells, 190 x10^3 rat receptors/cell) turned out to be 2.5 nM.

Source of the values: patent US7033773B1, “Screening assays for G protein coupled receptor agonists and antagonists” (The General Hospital Corporation, priority 1997, dated 2006).
